Assay results from US9066516B2, “Uses of thaxtomin and thaxtomin compositions as herbicides” (priority 2008, dated 2015).

Key:
Format in all cases: in vivo
[1] = system: corn (Zea mays var. Early Sunglow); assay: Pot study, phytotoxicity on corn (Example 2); settings: 0.5 and 1.0 mg/mL, 7, 14 and 21 days after treatment
Procedure: (§1) A pot study is conducted to test the phytotoxicity of thaxtomin A on corn (Zea mays var. Early Sunglow) and wheat (Triticum aestivum var. PR1404). To confirm the activity on broadleaf weeds, pigweed (Amaranthus sp.) is planted in the same pot with either three corn or five wheat seeds, and sprayed simultaneously with the cereal test plants. The less than 3-inch tall plants grown under growth lights (12-h light/12-h dark) at 28° C. are sprayed with thaxtomin A solutions derived from a liquid culture of S. acidiscabies containing 0.5, and 1.0 mg thaxtomin A per mL of solvent (4% ethanol and 0.2% non-ionic surfactant). A solution of 4% ethanol +0.2% non-ionic surfactant without thaxtomin A is used as a control treatment. Each treatment is conducted in three replicates. Treated plants are kept at 28° C. under growth lights and observed at three time points—7, 14 and 21 days after treatment—for visual symptoms of phytotoxicity on corn and wheat and % control of pigweed.

pigweed (Amaranthus sp.) = assay: Pot study, % control of pigweed (Example 2); settings: 1.0 mg/mL
Procedure: as §1

[2] = system: small-flower umbrella sedge; assay: Field study, 1-sq foot plots (Example 5); settings: 14 days after treatment
Procedure: (§2) The combined effect of thaxtomin A and two commercial herbicides (Bipyribac-sodium formulated as Regiment and Lemongrass oil formulated as GreenMatch EX) on small-flower umbrella sedge and watergrass is tested in a field study using small (1-sq foot) plots. All single product treatments and tank mix combinations were sprayed at 57 gal per acre. Means in each column marked with the same letter in Table 2 are not statistically different from each other at p<0.05

watergrass = assay: Field study, 1-sq foot plots (Example 5); settings: 14 days after treatment
Procedure: as §2

redstem = assay: Field study on rice, weed count (Example 6); settings: Thaxtomin A 180 g/acre; per plot
Procedure: (§3) The efficacy of thaxtomin A derived from a liquid culture of S. acidiscabies is tested in a field study on rice using 4.9 sq-ft plots surrounded by a metal ring. Treatments with either thaxtomin A or thaxtomin A in combination with lemongrass oil (formulated as GreenMatch EX) or cyhalofop (formulated as Clincher CA) were done using a hand-held sprayer with a water volume corresponding to 57 gallons per acre. Rice (variety M209) was grown until maturity and harvested by hand for yield and weed count assessment. Results of yield (kg/ha), and numbers of redstem, small-flower umbrella sedge, and sprangletop in each plot are presented in Table 3 below.

[3] = system: small-flower umbrella sedge; assay: Field study on rice, weed count (Example 6); settings: Thaxtomin A 180 g/acre, per plot
Procedure: as §3

sprangletop = assay: Field study on rice, weed count (Example 6); settings: Thaxtomin A 180 g/acre, per plot
Procedure: as §3

barnyard grass = assay: Greenhouse spray test bialaphos + MBI-005 (Example 10)
Procedure: The MBI-005 and bialaphos were prepared at various concentrations either as single ingredients or in combination with bialaphos. The treatments were applied at approximately ⅔ ml per replicate with a hand-help spray nozzle to barnyard grass or sedge. There were 3 replicates per treatment which were randomized after spray and were kept in a greenhouse at 25° C. for evaluation of phytotoxicity (% control).

ragweed = assay: Greenhouse synergy test MBI-005 + commercial herbicides (Example 11); settings: 14 days
Procedure: The test species barnyard grass, ragweed, sedge, and broad-leaf mustard were used for the valuation of synergy between MBI-005 and the rice herbicides clomazone, penoxsulam, cyhalofop, fenoxaprop-p-ethyl, bispyribac-sodium, thiobencarb, and propanil.
[…] other herbicides commonly used for field crops, glyphosate, glufosinate, synthetic version of bialaphos, and mesotrione were also tested for synergy with MBI-005 on crabgrass and ragweed.
(§4) There were 3 replicates per treatment which were sprayed with approximately ⅔ ml per replicate. The treatments were completely randomized and kept in a greenhouse at 25° C. The efficacy was rated at 7 and 14 days post treatment.

dandelion = assay: Greenhouse synergy test MBI-005 + turf herbicides (Example 11); settings: 14 days
Procedure: (§5) The common turf weeds dandelion and plantain were used in testing for synergy between MBI-005 and 2, 4- or dicamba, two common turf herbicides.
as §4

plantain = assay: as above; settings: 14 days
Procedure: as §5, §4

[4] = system: Barnyardgrass (Echinochloa crus-gali); assay: Pre-emergence test of MBI-005, lab (Example 12); settings: pre-emergent; note: ranges in brackets are in %
Procedure: (§6) To further describe the spectrum of pre-emergence activity, tests were conducted in laboratory and field conditions. In laboratory testing, 35 seeds were placed on a ring of blotter paper inside a 3 cm petri dish and supplied with 4 ml of MBI-005 (≦0.1 mg MBI-005/ml). Water was used as a negative control and oryzalin applied as a positive control. Petri dishes were randomly placed in a growth room at 25° C. and 50% RH. Treatments were replicated three times and germinated seeds were counted 7 and 14 days after application; water was added as necessary to maintain moisture levels inside each petri dish.

[5] = system: Lambsquarters (Chenopodium album); assay: Pre-emergence test of MBI-005, lab (Example 12); settings: pre-emergent; note: ranges in brackets are in %
Procedure: as §6

[6] = system: Late watergrass (R) (Echinochloa phyllopogon); assay: Pre-emergence test of MBI-005, lab (Example 12); settings: pre-emergent, herbicide resistant population; note: ranges in brackets are in %
Procedure: as §6

[7] = system: Palmer pigweed (R) (Amaranthus palmerii); assay: Pre-emergence test of MBI-005, lab (Example 12); settings: pre-emergent, herbicide resistant population; note: ranges in brackets are in %
Procedure: as §6

[8] = system: annual grasses and broadleaves, some perennials; assay: Pre-emergence spectrum of MBI-005, overall (Example 12); settings: some perennials (Table 12)
Procedure: as §6
In field testing, field soil containing weed seeds were treated with 38.2 L MBI-005/ha at a spray volume of 280 L/ha using a CO2 sprayer with flat fan nozzles. Treatments, including water as the negative control and Gallery as the positive control, were replicated four times and applied twice at a four week interval. Treatments were evaluated visually as % cover and above-ground fresh weights per container were taken.

CN1C(=O)[C@](O)(Cc2cccc(O)c2)N(C)C(=O)[C@@H]1Cc1c[nH]c2cccc([N+](=O)[O-])c12 [thaxtomin A]
symptoms of phytotoxicity [1]: no symptoms of phytotoxicity are observed | control of pigweed (pigweed (Amaranthus sp.)): complete control | Sedge control (%) ([2]; Thaxtomin 0.25 mg/mL): 95a % | Sedge control (%) ([2]; Thaxtomin 0.5 mg/mL): 100a % | Watergrass control (%) (watergrass; Thaxtomin 0.25 mg/mL): 5d % | Watergrass control (%) (watergrass; Thaxtomin 0.5 mg/mL): 5d % | # of redstem (redstem): 0.5b | # of sedge ([3]; listed as Thaxtomin A): 1.0a | # of sedge ([3]; listed as thaxtomin): significantly reduced the number of sedges | # of sprangletop (sprangletop; listed as Thaxtomin A): 76.0a | # of sprangletop (sprangletop; listed as thaxtomin): no effect | % Control (14 days) (barnyard grass; Table 6, MBI-005 0.25 mg/L): 1.3 ab % | % Control (14 days) (barnyard grass; Table 7, MBI-005 0.25 mg/mL): 6.7 bc % | % Control (7 days) (barnyard grass; Table 8, MBI-005 0.38 mg/mL): 6.7 ab % | % Control (14 days) (barnyard grass; Table 8, MBI-005 0.38 mg/mL): 21.7 b % | % Control MBI-005 (ragweed; MBI-005 0.125 mg/mL (bispyribac-sodium line)): 23.3% | % Control MBI-005 (ragweed; MBI-005 0.125 mg/mL (glufosinate line)): 37.5% | % Control MBI-005 (ragweed; MBI-005 0.125 mg/mL (glyphosate line)): 6.7% | % Control MBI-005 (dandelion; MBI-005 0.1 mg/mL (2, 4-D line)): 20.0% | % Control MBI-005 (dandelion; MBI-005 0.1 mg/mL (dicamba line)): 20.0% | % Control MBI-005 (plantain; MBI-005 0.12 mg/mL (dicamba line)): 10.0% | % Control MBI-005 (plantain; MBI-005 0.24 mg/mL (2, 4-D line)): 25.0% | Rating at 0.1 mg/ml (Reduction of Germination) [4]: ++++ (95-100) | Rating at 0.1 mg/ml (Reduction of Germination) [5]: +++ (85-94) | Rating at 0.1 mg/ml (Reduction of Germination) [6]: ++++ (95-100) | Rating at 0.1 mg/ml (Reduction of Germination) [7]: +++ (85-94) | pre-emergence spectrum of activity [8]: broad spectrum activity
